# Laboratory results taken from ChEMBL document CHEMBL5143585, “Discovery and characterization of benzyloxy piperidine based dopamine 4 receptor antagonists” (Bioorg Med Chem Lett, 2022).
# Experiments:
# D(4) dopamine receptor = target: T1, D(4) dopamine receptor (Homo sapiens, UniProt P21917); assay: Displacement of [3H]N-methylspiperone from human D4 receptor expressed in HEK293 cell membrane by competitive inhibition based analysis; format: cell membranes
# T1 sequence (P21917 whole entry): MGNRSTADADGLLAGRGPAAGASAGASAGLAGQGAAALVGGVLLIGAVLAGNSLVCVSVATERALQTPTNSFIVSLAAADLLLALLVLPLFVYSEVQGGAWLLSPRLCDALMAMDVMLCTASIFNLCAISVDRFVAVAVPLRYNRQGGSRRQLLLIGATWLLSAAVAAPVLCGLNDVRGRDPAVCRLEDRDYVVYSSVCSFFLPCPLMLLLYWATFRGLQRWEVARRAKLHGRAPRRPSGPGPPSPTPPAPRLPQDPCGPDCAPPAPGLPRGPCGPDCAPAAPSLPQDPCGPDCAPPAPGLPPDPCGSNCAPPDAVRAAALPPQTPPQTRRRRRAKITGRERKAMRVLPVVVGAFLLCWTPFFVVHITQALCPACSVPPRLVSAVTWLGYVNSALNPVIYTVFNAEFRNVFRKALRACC
# D(1A) dopamine receptor [1] = target: T2, D(1A) dopamine receptor (Homo sapiens, UniProt P21728); assay: Displacement of [3H]-SCH23390 from human D1 receptor expressed in HEK293 cell membrane at 10 uM by competitive inhibition based analysis; format: cell membranes
# T2 sequence (P21728 whole entry): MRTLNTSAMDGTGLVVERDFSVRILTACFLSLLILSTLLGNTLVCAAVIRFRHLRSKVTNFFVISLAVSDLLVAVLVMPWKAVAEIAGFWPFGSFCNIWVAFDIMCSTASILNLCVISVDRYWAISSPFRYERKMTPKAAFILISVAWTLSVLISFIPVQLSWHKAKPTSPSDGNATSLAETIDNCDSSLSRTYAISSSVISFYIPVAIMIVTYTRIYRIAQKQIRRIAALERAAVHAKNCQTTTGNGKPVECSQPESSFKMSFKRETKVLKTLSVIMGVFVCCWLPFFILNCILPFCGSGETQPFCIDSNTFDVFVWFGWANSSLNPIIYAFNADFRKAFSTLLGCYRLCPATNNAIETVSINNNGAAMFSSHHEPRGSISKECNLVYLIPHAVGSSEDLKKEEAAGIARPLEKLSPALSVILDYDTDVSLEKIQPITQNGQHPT
# [2] = target: D(2) dopamine receptor (Homo sapiens) (UniProt P14416); assay: Displacement of [3H]N-methylspiperone from human D2 receptor expressed in HEK293 cell membrane at 10 uM by competitive inhibition based analysis; format: cell membranes
# Chain of D(2) dopamine receptor (Homo sapiens) (P14416 whole entry): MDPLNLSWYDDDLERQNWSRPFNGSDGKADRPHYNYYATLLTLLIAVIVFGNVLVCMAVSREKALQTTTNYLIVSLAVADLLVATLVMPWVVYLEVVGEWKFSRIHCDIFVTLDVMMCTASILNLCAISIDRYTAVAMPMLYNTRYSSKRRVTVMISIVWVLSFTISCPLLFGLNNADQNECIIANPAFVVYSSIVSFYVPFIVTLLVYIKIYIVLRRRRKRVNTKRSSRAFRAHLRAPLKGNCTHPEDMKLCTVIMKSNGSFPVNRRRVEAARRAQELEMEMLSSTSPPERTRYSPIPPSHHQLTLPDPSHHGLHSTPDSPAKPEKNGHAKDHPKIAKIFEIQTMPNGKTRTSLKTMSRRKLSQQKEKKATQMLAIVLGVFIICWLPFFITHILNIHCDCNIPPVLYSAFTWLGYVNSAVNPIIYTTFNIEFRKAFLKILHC
# D(3) dopamine receptor [3] = target: T3, D(3) dopamine receptor (Homo sapiens, UniProt P35462); assay: Displacement of [3H]N-methylspiperone from human D3 receptor expressed in HEK293 cell membrane at 10 uM by competitive inhibition based analysis; format: cell membranes
# T3 sequence (P35462 whole entry): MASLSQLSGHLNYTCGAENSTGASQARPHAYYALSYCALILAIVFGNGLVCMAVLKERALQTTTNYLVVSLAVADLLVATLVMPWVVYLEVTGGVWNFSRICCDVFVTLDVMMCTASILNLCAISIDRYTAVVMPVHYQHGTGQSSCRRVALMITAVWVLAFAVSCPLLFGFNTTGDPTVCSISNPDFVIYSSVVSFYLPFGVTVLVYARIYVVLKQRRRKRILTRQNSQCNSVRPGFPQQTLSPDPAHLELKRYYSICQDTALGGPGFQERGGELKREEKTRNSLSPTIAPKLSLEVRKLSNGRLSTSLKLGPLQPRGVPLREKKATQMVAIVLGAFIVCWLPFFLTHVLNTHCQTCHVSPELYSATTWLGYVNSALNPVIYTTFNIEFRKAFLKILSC
# D(3) dopamine receptor [4] = target: T3, D(3) dopamine receptor; assay: Displacement of [3H]N-methylspiperone from human D3 receptor expressed in HEK293 cell membrane by competitive inhibition based analysis; format: cell membranes
# D(1B) dopamine receptor [5] = target: T4, D(1B) dopamine receptor (Homo sapiens, UniProt P21918); assay: Displacement of [3H]-SCH23390 from human D5 receptor expressed in HEK293 cell membrane at 10 uM by competitive inhibition based analysis; format: cell membranes
# T4 sequence (P21918 whole entry): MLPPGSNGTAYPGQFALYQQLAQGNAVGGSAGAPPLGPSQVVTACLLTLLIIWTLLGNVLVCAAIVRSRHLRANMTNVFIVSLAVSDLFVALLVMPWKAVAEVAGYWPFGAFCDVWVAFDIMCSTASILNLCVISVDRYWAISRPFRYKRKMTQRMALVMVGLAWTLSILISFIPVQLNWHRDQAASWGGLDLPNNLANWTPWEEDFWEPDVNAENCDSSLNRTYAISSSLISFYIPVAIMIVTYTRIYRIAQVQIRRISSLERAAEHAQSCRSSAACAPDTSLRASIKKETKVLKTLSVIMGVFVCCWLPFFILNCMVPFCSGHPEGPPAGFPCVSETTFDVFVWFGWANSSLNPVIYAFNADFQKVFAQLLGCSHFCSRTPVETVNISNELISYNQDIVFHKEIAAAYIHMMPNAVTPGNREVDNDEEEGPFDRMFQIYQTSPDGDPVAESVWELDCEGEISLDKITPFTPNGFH
# D(1B) dopamine receptor [6] = target: T4, D(1B) dopamine receptor; assay: Displacement of [3H]-SCH23390 from human D5 receptor expressed in HEK293 cell membrane by competitive inhibition based analysis; format: cell membranes
# [7] = Protein binding in human plasma assessed as unbound fraction; format: ADME, cell-free
# [8] = Protein binding in mouse plasma assessed as unbound fraction; format: ADME, cell-free
# [9] = Half-life in rat at 0.25 mg/kg, iv measured for 24 hrs; format: ADME, organism-based; settings: in vivo
# [10] = Initial plasma concentration in rat at 0.25 mg/kg, iv; format: ADME, organism-based
# [11] = AUC in rat at 0.25 mg/kg, iv measured for 24 hrs; format: ADME, organism-based; set-up: time 24 hrs, dose 0.25 mg/kg, route iv; settings: in vivo
# [12] = Plasma concentration in rat at 0.25 mg/kg, iv measured on day 2 at 0.25 hrs post-dose; format: ADME, organism-based; settings: time 2 day
# [13] = Drug uptake in rat brain at 0.25 mg/kg, iv measured on day 2 at 0.25 hrs post-dose; format: ADME, organism-based; settings: time 2 day, read-out: Drug uptake
# [14] = Ratio of drug level in rat brain to plasma at 0.25 mg/kg, iv measured on day 2 at 0.25 hrs post-dose; format: ADME, organism-based; settings: time 2 day, read-out: BPR
# [15] = Volume of distribution at steady state in rat at 0.25 mg/kg, iv measured for 24 hrs; format: ADME, organism-based; settings: in vivo
# [16] = target: T5, D(4) dopamine receptor (Homo sapiens) (UniProt P21917); assay: Displacement of [3H]N-methylspiperone from human D4 receptor expressed in HEK293 cell membrane at 10 uM by competitive inhibition based analysis; format: cell membranes
# T5 sequence (whole entry): T1 sequence (P21917 whole entry)
# D(1A) dopamine receptor [17] = target: T2, D(1A) dopamine receptor; assay: Displacement of [3H]-SCH23390 from human D1 receptor expressed in HEK293 cell membrane by competitive inhibition based analysis; format: cell membranes
# [18] = Stability of the compound in mouse plasma; format: ADME, cell-free
# [19] = Intrinsic clearance in human liver microsomes; format: ADME, Microsome; settings: read-out: CLH
IC50 (D(4) dopamine receptor),Ki (D(4) dopamine receptor),inhibition (D(1A) dopamine receptor [1]),inhibition [2],inhibition (D(3) dopamine receptor [3]; filed as antagonist),Ki (D(3) dopamine receptor [4]),inhibition (D(1B) dopamine receptor [5]),Fu [7],Fu [8],t1/2 [9],AUC [11],concentration at 48 h [12],concentration at 48 h [13],Kp at 48 h [14],inhibition (D(3) dopamine receptor [3]),"C0 ([10]; in vivo, iv, 0.25 mg/kg)",Vdss [15],SMILES,also measured
437 nM,441 nM,< 50%,< 50%,76.2%,2360 nM,< 50%,,,,,,,,,,,Cc1c(Cl)cccc1NC(=O)CN1CCC(OCc2ccc(Cl)c(F)c2)CC1,
324 nM,323 nM,< 50%,< 50%,76%,557 nM,,,,,,,,,,,,Fc1cc(COC2CCN(Cc3cc4ccc(Cl)cc4[nH]3)CC2)ccc1Cl,inhibition (D(1B) dopamine receptor [5]; filed as antagonist): 65%
148 nM,149 nM,< 50%,< 50%,73%,965 nM,,< 0.3%,0.4%,1.8 h,126 ng·h/mL,19.4 ng/mL,562 ng/g,28.9,,,,Fc1ccc(COC2CCN(Cc3cc4ccc(Cl)cc4[nH]3)CC2)cc1F,"inhibition (D(1B) dopamine receptor [5]; filed as antagonist): 64%; Ki (D(1B) dopamine receptor [6]): 3990 nM; C0 ([10]; plasma, read-out: C0): 12.6 ng/mL"
339 nM,337 nM,< 50%,< 50%,,,< 50%,6.2%,42.8%,0.9 h,142 ng·h/mL,34.9 ng/mL,232 ng/g,6.6,< 50%,49.4 ng/mL,6.4 L/kg,Fc1ccc(COC2CCN(Cc3cn4ccccc4n3)CC2)cc1F,
1510 nM,1520 nM,< 50%,< 50%,,,< 50%,7.7%,17.1%,1.1 h,79.9 ng·h/mL,14.1 ng/mL,139 ng/g,9.9,< 50%,23.5 ng/mL,13.6 L/kg,Fc1cc(COC2CCN(Cc3ccc4[nH]cnc4c3)CC2)ccc1Cl,
209 nM,211 nM,,< 50%,,,< 50%,0.1%,0.1%,,,,,,< 50%,,,FC(F)(F)c1cccc(COC2CCN(Cc3cc4ccc(Cl)cc4[nH]3)CC2)c1,Ki (D(1A) dopamine receptor [17]): 1190 nM; inhibition (D(1A) dopamine receptor [1]; filed as antagonist): 55%
120 nM,121 nM,< 50%,< 50%,,,< 50%,0.5%,,,,,,,< 50%,,,Cc1cc(NC(=O)CN2CCC(OCc3ccc(F)c(F)c3)CC2)ccc1F,Stability [18]: Unstable
275 nM,276 nM,< 50%,< 50%,,,< 50%,3.6%,16.6%,1.4 h,112 ng·h/mL,30.6 ng/mL,355 ng/g,11.6,< 50%,32.5 ng/mL,12.9 L/kg,Cn1ncc2cc(CN3CCC(OCc4ccc(F)c(F)c4)CC3)ccc21,
1150 nM,1160 nM,< 50%,< 50%,84%,2120 nM,< 50%,,,,,,,,,,,Cc1c(Cl)cccc1NC(=O)CN1CCC(OCc2cccc(C(F)(F)F)c2)CC1,
5.01 nM,5.8 nM,,< 50%,,,,,3.7%,,,,,,,,,COc1ccc(CN2CCO[C@H](COc3ccccc3)C2)cc1F,CLint scaled [19]: 71.9 mL/min/kg
646 nM,640 nM,,,,,,1%,5.7%,1.1 h,149 ng·h/mL,30.1 ng/mL,214 ng/g,7.2,,60.2 ng/mL,6.3 L/kg,Cn1cnc2cc(CN3CCC(OCc4cccc(C(F)(F)F)c4)CC3)ccc21,

# Continued, compound first:
SMILES,IC50 (D(4) dopamine receptor),Ki (D(4) dopamine receptor),inhibition (D(1A) dopamine receptor [1]),inhibition [2],inhibition (D(3) dopamine receptor [3]; filed as antagonist),Ki (D(3) dopamine receptor [4]),inhibition (D(1B) dopamine receptor [5]),Fu [7],Fu [8],t1/2 [9],AUC [11],concentration at 48 h [12],concentration at 48 h [13],Kp at 48 h [14],inhibition (D(3) dopamine receptor [3]),"C0 ([10]; in vivo, iv, 0.25 mg/kg)",Vdss [15],also measured
Cc1cc(CO[C@H]2CCCN(c3ccc(Cl)cc3)C2)ccc1F,,,< 50%,< 50%,,,,,,,,,,,< 50%,,,inhibition [16]: 4.7%; inhibition (D(1B) dopamine receptor [5]; filed as antagonist): 66%; Ki (D(1B) dopamine receptor [6]): > 10000 nM
Cn1ncc2cc(CN3CCC(OCc4cccc(C(F)(F)F)c4)CC3)ccc21,200 nM,200 nM,< 50%,< 50%,92%,923 nM,< 50%,1%,5.7%,,,,,,,,,
FC(F)(F)c1cccc(COC2CCN(Cc3ccc4[nH]cnc4c3)CC2)c1,1820 nM,1800 nM,< 50%,< 50%,83%,948 nM,< 50%,2.5%,16.1%,,,,,,,,,
Fc1ccc(COC2CCN(Cc3ccc4[nH]cnc4c3)CC2)cc1F,4270 nM,4280 nM,< 50%,< 50%,57%,4080 nM,< 50%,22.9%,40.1%,1.2 h,65.6 ng·h/mL,7 ng/mL,112 ng/g,16.1,,,19.2 L/kg,
Fc1cc(COC2CCN(Cc3cn4ccccc4n3)CC2)ccc1Cl,135 nM,134 nM,< 50%,< 50%,,,,1.8%,22.4%,0.6 h,125 ng·h/mL,29.9 ng/mL,453 ng/g,15.5,< 50%,52.2 ng/mL,5.1 L/kg,inhibition (D(1B) dopamine receptor [5]; filed as antagonist): 57%; Ki (D(1B) dopamine receptor [6]): > 10000 nM
Cc1c(Cl)cccc1NC(=O)CN1CCC(OCc2ccc(F)c(F)c2)CC1,302 nM,299 nM,< 50%,< 50%,67%,2460 nM,< 50%,0.3%,1.5%,4.4 h,747 ng·h/mL,45.8 ng/mL,134 ng/g,2.9,,5.5 ng/mL,5.5 L/kg,
Fc1cccc(CO[C@H]2CCCN(c3ccc(Cl)cc3)C2)c1,,,< 50%,< 50%,71%,> 10000 nM,< 50%,,,,,,,,,,,inhibition [16]: -10%
Cc1nc(CN2CCC(OCc3cccc(C(F)(F)F)c3)CC2)c2ccccn12,302 nM,309 nM,< 50%,< 50%,,896 nM,< 50%,5.2%,3.6%,,,,,,< 50%,,,
